The molecules below were run against T1, human B1R (Homo sapiens, UniProt P46663) (assay: Functional assay at bradykinin receptor 1 (B1R): Ca2+ fluorescence (Fluo-4) in FLIPR/Novostar, antagonist mode). Details: test substance 10 µM; CHO K1 cells stably transfected with human B1R gene (hB1R-Zellen); agonist Lys-Des-Arg9-Bradykinin at EC80; % inhibition relative to maximal achievable inhibition; read-out: % Inhibierung (human B1R) bei 10 µM.
T1 construct: expressed in transfected cells; host or cells: CHO K1 cells (Chinese Hamster Ovary), stably transfected
T1 sequence (P46663 1-353): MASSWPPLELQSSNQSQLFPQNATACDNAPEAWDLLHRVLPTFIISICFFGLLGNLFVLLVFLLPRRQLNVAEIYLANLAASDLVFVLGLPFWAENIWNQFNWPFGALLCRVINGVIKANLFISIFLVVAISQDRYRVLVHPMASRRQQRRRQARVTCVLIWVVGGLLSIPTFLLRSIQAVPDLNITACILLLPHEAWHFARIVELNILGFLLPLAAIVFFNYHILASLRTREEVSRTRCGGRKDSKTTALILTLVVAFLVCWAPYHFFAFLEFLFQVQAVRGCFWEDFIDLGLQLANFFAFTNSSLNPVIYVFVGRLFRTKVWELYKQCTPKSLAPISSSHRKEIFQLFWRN
Type: cell-based
In short: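 CHO K1 cells stably expressing human B1R were loaded with Fluo-4 and preincubated 6–20 min with test compound before Lys-Des-Arg9-bradykinin at its EC80. Peak fluorescence (ex 488/em 540 nm) gave % inhibition versus maximal inhibition; IC50 from several concentrations, n=2 or 3.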

SMILES | inhibition at 10 µM [%]
COc1cc(C)c(S(=O)(=O)Cc2cn(CC(=O)NC3CCC(N(C)C)CC3)nn2)c(C)c1 (centres unmarked) [CC-169, N-(4-Dimethylamino-cyclohexyl)-2-[4-[[(4-methoxy-2,6-dimethyl-phenyl)sulfonyl]-methyl]-1H-[1,2,3]triazol-1-yl]-acetamid] | 100
COc1cc(C)c(S(=O)(=O)Cc2noc(CC(=O)N3[C@@H]4CC[C@H]3CC(Oc3ccncc3)C4)n2)c(C)c1 (stereo partly drawn) [CC-135, 2-[3-[[(4-Methoxy-2,6-dimethyl-phenyl)sulfonyl]-methyl]-[1,2,4]oxadiazol-5-yl]-1-[(1S, 5R)-3-pyridin-4-yloxy-8-azabicyclo[3.2.1]octan-8-yl]-ethanon] | 98
COc1cc(C)c(S(=O)(=O)Cc2nc(CC(=O)NC3CCC(N4CCN(C)CC4)CC3(C)C)no2)c(C)c1 (centres unmarked) [CC-33, N-[2,2-Dimethyl-4-(4-methyl-piperazin-1-yl)-cyclohexyl]-2-[5-[[(4-methoxy-2,6-dimethyl-phenyl)sulfonyl]-methyl]-[1,2,4]oxadiazol-3-yl]-acetamid] | 100
Cc1cccc(Cl)c1S(=O)(=O)Cc1noc(CC(=O)NC2CCC(N3CCN(C)CC3)CC2(C)C)n1 (centres unmarked) [CC-98, 2-[3-[[(2-Chlor-6-methyl-phenyl)sulfonyl]-methyl]-[1,2,4]oxadiazol-5-yl]-N-[2,2-dimethyl-4-(4-methyl-piperazin-1-yl)-cyclohexyl]-acetamid] | 100
COc1cc(C)c(S(=O)(=O)Cc2nc(CC(=O)NC3CCNCC3(C)C)no2)c(C)c1 (centres unmarked) [CC-52, N-(3,3-Dimethyl-piperidin-4-yl)-2-[5-[[(4-methoxy-2,6-dimethyl-phenyl)sulfonyl]-methyl]-[1,2,4]oxa-diazol-3-yl]-acetamid] | 100
COc1cc(C)c(S(=O)(=O)Cc2noc(C(=O)N(C)CCC3CCN(c4ccncc4)CC3)n2)c(C)c1 [CC-10, 3-[[(4-Methoxy-2,6-dimethyl-phenyl)sulfonyl]-methyl]-N-methyl-N-[2-(1-pyridin-4-yl-piperidin-4-yl)-ethyl]-[1,2,4]oxadiazol-5-carbonsäure amid] | 100
Cc1cccc(Cl)c1S(=O)(=O)Cc1noc(C(=O)N(C)CCC2CCN(c3ccncc3)CC2)n1 [CC-14, 3-[[(2-Chlor-6-methyl-phenyl)sulfonyl]-methyl]-N-methyl-N-[2-(1-pyridin-4-yl-piperidin-4-yl)-ethyl]-[1,2,4]oxadiazol-5-carbonsäure amid] | 100
COc1cc(C)c(S(=O)(=O)Cc2c(C)nn(CC(=O)N(C)C3CCNCC3(C)C)c2C)c(C)c1 (centres unmarked) [CC-185, N-(3,3-Dimethyl-piperidin-4-yl)-2-[4-[[(4-methoxy-2,6-dimethyl-phenyl)sulfonyl]-methyl]-3,5-dimethyl-1 H-pyrazol-1-yl]-N-methyl-acetamid] | 72
COc1cc(C)c(S(=O)(=O)Cc2cn(CC(=O)NC3CCN(C(C)=O)CC3(C)C)nn2)c(C)c1 (centres unmarked) [CC-161, N-(1-Acetyl-3,3-dimethyl-piperidin-4-yl)-2-[4-[[(4-methoxy-2,6-dimethyl-phenyl)sulfonyl]-methyl]-1H-[1,2,3]triazol-1-yl]-acetamid] | 92
COc1cc(C)c(S(=O)(=O)Cc2noc(CC(=O)NC3CCN(c4ccc(C(F)(F)F)cn4)CC3)n2)c(C)c1 [CC-03, 2-[3-[[(4-Methoxy-2,6-dimethyl-phenyl)sulfonyl]-methyl]-[1,2,4]oxadiazol-5-yl]-N-[1-[5-(trifluor-methyl)-pyridin-2-yl]-piperidin-4-yl]-acetamid] | 91
COc1cc(C)c(S(=O)(=O)Cc2cn(CC(=O)NC3CCC(N4CCCC4)CC3(C)C)nn2)c(C)c1 (centres unmarked) [CC-158, N-(2,2-Dimethyl-4-pyrrolidin-1-yl-cyclohexyl)-2-[4-[[(4-methoxy-2,6-dimethyl-phenyl)sulfonyl]-methyl]-1H-[1,2,3]triazol-1-yl]-acetamid] | 100
COc1cc(C)c(S(=O)(=O)Cc2nc(CC(=O)NC3CCC(N4CCCC4)CC3)no2)c(C)c1 (centres unmarked) [CC-32, 2-[5-[[(4-Methoxy-2,6-dimethyl-phenyl)sulfonyl]-methyl]-[1,2,4]oxadiazol-3-yl]-N-(4-pyrrolidin-1-yl-cyclohexyl)-acetamid] | 100
COc1cc(C)c(S(=O)(=O)Cc2nnc(CC(=O)NC3CCN(C)CC3(C)C)o2)c(C)c1 (centres unmarked) [CC-111, 2-[5-[[(4-Methoxy-2,6-dimethyl-phenyl)sulfonyl]-methyl]-[1,3,4]oxadiazol-2-yl]-N-(1,3,3-trimethyl-piperidin-4-yl)-acetamid] | 100
COc1cc(C)c(S(=O)(=O)Cc2cc(C)n(CC(=O)NC3CCN(C(C)=O)CC3(C)C)n2)c(C)c1 (centres unmarked) [CC-159, N-(1-Acetyl-3,3-dimethyl-piperidin-4-yl)-2-[3-[[(4-methoxy-2,6-dimethyl-phenyl)sulfonyl]-methyl]-5-methyl-1 H-pyrazol-1-yl]-acetamid] | 50
COc1cc(C)c(S(=O)(=O)Cc2cn(CC(=O)NC3CCC(c4ccncc4)CC3(C)C)nn2)c(C)c1 (centres unmarked) [CC-178, N-(2,2-Dimethyl-4-pyridin-4-yl-cyclohexyl)-2-[4-[[(4-methoxy-2,6-dimethyl-phenyl)sulfonyl]-methyl]-1 H-[1,2,3]triazol-1-yl]-acetamid] | 100
CC1(C)CC(N2CCCC2)CCC1NC(=O)Cc1nc(CS(=O)(=O)c2cccc(Cl)c2Cl)no1 (centres unmarked) [CC-106, 2-[3-[[(2,3-Dichlor-phenyl)sulfonyl]-methyl]-[1,2,4]oxadiazol-5-yl]-N-(2,2-dimethyl-4-pyrrolidin-1-yl-cyclohexyl)-acetamid] | 82

Continued, values first:

inhibition at 10 µM [%] | SMILES
100 | COc1cc(C)c(S(=O)(=O)Cc2noc(C(=O)N(C)C3CCN(c4ccnc(N(C)C)c4)CC3)n2)c(C)c1 [SC-69, N-[1-(2-Dimethylamino-pyridin-4-yl)-piperidin-4-yl]-3-[[(4-methoxy-2,6-dimethyl-phenyl)sulfonyl]-methyl]-N-methyl-[1,2,4]oxadiazol-5-carbonsäure amid]
100 | COc1cc(C)c(S(=O)(=O)Cc2nnc(C(=O)N3CCC(CN4CCN(C)CC4)C3)o2)c(C)c1 (centres unmarked) [SC-86, [5-[[(4-Methoxy-2,6-dimethyl-phenyl)sulfonyl]-methyl]-[1,3,4]oxadiazol-2-yl]-[3-[(4-methyl-piperazin-1-yl)-methyl]-pyrrolidin-1-yl]-methanon]
100 | COc1cc(C)c(S(=O)(=O)Cc2noc(CC(=O)NC3CCN(c4ccncc4)CC3(C)C)n2)c(C)c1 (centres unmarked) [SC-14, N-(3,3-Dimethyl-1-pyridin-4-yl-piperidin-4-yl)-2-[3-[[(4-methoxy-2,6-dimethyl-phenyl)sulfonyl]-methyl]-[1,2,4]oxadiazol-5-yl]-acetamid]
100 | COc1cc(C)c(S(=O)(=O)Cc2noc(C(=O)N3CCN(Cc4ccc(N5CCCC5)nc4)CC3)n2)c(C)c1 [SC-61, [3-[[(4-Methoxy-2,6-dimethyl-phenyl)sulfonyl]-methyl]-[1,2,4]oxadiazol-5-yl]-[4-[(6-pyrrolidin-1-yl-pyridin-3-yl)-methyl]-piperazin-1-yl]-methanon]
100 | COc1cc(C)c(S(=O)(=O)Cc2noc(C(=O)N3CCC4(CCN(c5ccncc5)C4)C3)n2)c(C)c1 (centres unmarked) [SC-05, [3-[[(4-Methoxy-2,6-dimethyl-phenyl)sulfonyl]-methyl]-[1,2,4]oxadiazol-5-yl]-(8-pyridin-4-yl-3,8-diazaspiro[4.4]nonan-3-yl)-methanon]
99 | COc1cc(C)c(S(=O)(=O)Cc2noc(C(=O)NC3CCC(N4CCN(C)CC4)CC3(C)C)n2)c(C)c1 (centres unmarked) [SC-16, N-[2,2-Dimethyl-4-(4-methyl-piperazin-1-yl)-cyclohexyl]-3-[[(4-methoxy-2,6-dimethyl-phenyl)-sulfonyl]-methyl]-[1,2,4]oxadiazol-5-carbonsäure amid]
100 | COc1cc(C)c(S(=O)(=O)Cc2noc(CC(=O)N(C)C3CCN(c4ccnc(N(C)C)n4)CC3)n2)c(C)c1 [SC-66, N-[1-(2-Dimethylamino-pyrimidin-4-yl)-piperidin-4-yl]-2-[3-[[(4-methoxy-2,6-dimethyl-phenyl)-sulfonyl]-methyl]-[1,2,4]oxadiazol-5-yl]-N-methyl-acetamid]
99 | COc1cc(C)c(S(=O)(=O)Cc2noc(CC(=O)N(C)C3CCN(c4cc(C)nc(C)n4)CC3)n2)c(C)c1 [SC-42, N-[1-(2,6-Dimethyl-pyrimidin-4-yl)-piperidin-4-yl]-2-[3-[[(4-methoxy-2,6-dimethyl-phenyl)sulfonyl]-methyl]-[1,2,4]oxadiazol-5-yl]-N-methyl-acetamid]
100 | COc1cc(C)c(S(=O)(=O)Cc2noc(CC(=O)NC3CCN(C4CCOCC4)CC3(C)C)n2)c(C)c1 (centres unmarked) [SC-39, N-(3,3-Dimethyl-1-tetrahydro-pyran-4-yl-piperidin-4-yl)-2-[3-[[(4-methoxy-2,6-dimethyl-phenyl)sulfonyl]-methyl]-[1,2,4]oxadiazol-5-yl]-acetamid]
99 | COc1cc(C)c(S(=O)(=O)Cc2noc(CC(=O)N3CCC4(CC3)CCN(c3ccncc3)CC4)n2)c(C)c1 [SC-11, 2-[3-[[(4-Methoxy-2,6-dimethyl-phenyl)sulfonyl]-methyl]-[1,2,4]oxadiazol-5-yl]-1-(9-pyridin-4-yl-3,9-diazaspiro[5.5]undecan-3-yl)-ethanon]
